Laboratory results taken from patent US5270339A, “Phenoxybenzene derivative” (Kanagafuchi Kagaku Kogyo Kabushiki Kaisha, priority 1991, dated 1993).

Key:
[1] = Acute toxicity test, oral; format: in vivo, ddY male mice; conditions: mouse, in vivo, ddY mice, 2 weeks observation
Procedure: (§1) With respect to the compounds 1 to 86 shown in Table 1 as test compounds, the acute toxicity was examined using ddY mice according to the following method.
(§2) In each group, six male ddY mice weighing 27 to 30 g were employed. The compounds 1 to 86 suspended in an aqueous solution of 0.5% sodium carboxymethylcellulose were administered orally in a volume of 0.1 ml/10 g body weight. […] The LD50 (mg/kg) values were estimated from the ratio of the number of dead mice to the number of mice used.

[2] = test system: ddY mice; assay: Acute toxicity test, oral; format: in vivo, ddY male mice; conditions: dose of 200 mg/kg, 2 weeks
Procedure: as §1, §2

[3] = test system: experimental amnesia in mice induced by cycloheximide; assay: Anti-amnesic effect: passive avoidance task (step-through), cycloheximide-induced amnesia; format: in vivo, ddY male mice; conditions: for Step-through latency: mean of group
Procedure: (§3) As experimental animals, Wistar male rats and ddY male mice were used for the tests after they were housed for a week under every 12 hours' dark-light cycle at room temperature of 24° to 26° C.
The effect on experimental amnesia in mice induced by cycloheximide was evaluated.
The experiment was carried out using an experimental apparatus of passive avoidance task for mice (made by Ohara-ika-sangyo K. K.) comprising a box divided into the two compartments of dark and light. That is, the dark compartment [a box having a reverse trapezoid cross section (height: 8 cm, base line: 5 cm, oblique line: 9.5 cm) and having the length of 14 cm] was shield from a light with a black plastic case and was floored with stainless grids for giving an electrical shock so that an electricity might be turned on a determined time after interception of a photobeam placed in the dark compartment. The light compartment made of transparent plastic (a box of the same shape as that of the dark compartment having the length of 16 cm, lightened from a location spaced 25 cm above by a 60 W electric lamp) was provided adjacent to the dark compartment. Between the two compartments, there was provided a circular entrance having the diameter of 3 cm with a guillotine door which could be opened and closed. By using the above-mentioned dark-light box, the experiment was carried out according to the following procedure.
A mouse (5 week-old) previously conditioned in the dark-light box was put in the light compartment and the guillotine door was opened. Three seconds after the mouse moved into the dark compartment and interrupted the photobeam, 0.3 mA electrical shock was given to limbs for 3 seconds from the floor grid (aquisition trial). Just after the mouse rushed into the light compartment, the door was shut and the […] in the light compartment was picked out to return to his home cage. After 24 hours, the mouse was placed again in the light compartment and the period from the opening of the guillotine door to the time the mouse completely entered the dark compartment was recorded maximally 300 seconds as a step-through latency (retention trial).
The amnesia was induced by subcutaneous injection of cycloheximide (120 mg/kg) dissolved in saline 10 minutes before the aquisition trial. As a control, the same amount of saline alone was administered. […]
A ratio of number of mice showing the step-through latency of more than 100 seconds in the group was defined as a ratio of memory for convenience's sake.
The step-through latency in Table 2 was the mean value for each treated group.

[4] = target: T1, M1 receptor (Rattus norvegicus, UniProt P08482); assay: Receptor binding activity, inhibition of [3H]pyrenzepine binding to M1; conditions: 1 nM [3H]pyrenzepine, rat's brain except cerebellum; for inhibition at 1 µM: 1 μM test compound; for inhibition at 10 µM: 10 μM test compound
T1 construct: rat's brain except for cerebellum was homogenized; from tissue; host or cells: rat brain except cerebellum, homogenate
T1 sequence (P08482 1-460): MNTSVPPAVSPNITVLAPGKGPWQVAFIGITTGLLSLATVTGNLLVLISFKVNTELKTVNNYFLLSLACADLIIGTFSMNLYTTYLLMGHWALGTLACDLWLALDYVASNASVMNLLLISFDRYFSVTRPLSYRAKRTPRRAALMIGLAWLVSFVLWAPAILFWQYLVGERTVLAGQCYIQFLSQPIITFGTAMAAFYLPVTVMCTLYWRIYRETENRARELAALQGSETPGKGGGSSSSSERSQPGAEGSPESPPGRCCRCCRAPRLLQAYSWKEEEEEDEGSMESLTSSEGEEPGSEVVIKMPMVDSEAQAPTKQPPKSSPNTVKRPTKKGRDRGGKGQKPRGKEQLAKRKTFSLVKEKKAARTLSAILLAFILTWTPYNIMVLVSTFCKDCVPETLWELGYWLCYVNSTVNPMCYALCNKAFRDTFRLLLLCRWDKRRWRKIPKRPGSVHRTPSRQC
Procedure: The binding ability of the test compounds to M1 was determined according to a modification of the method of Watson et al. (Life Sci., 32, 3001 (1983)). […] The mixture was incubated for 1 hour. The inhibition rate (%) of the binding with [3H]pyrenzepine was evaluated. The higher inhibition means the higher affinity of the test compound for M1 receptor.

[5] = test system: forced swimming test with rats (duration of immobility); assay: Antidepressant activity: forced swimming test using rats; format: in vivo, Wistar male rats; conditions: p.o., 30 mg/kg
Procedure: as §3
That is, a rat (5 week-old) was placed into a glass cylinder having the inside diameter of 18 cm and the height of 40 cm which contained water (water temperature: 25° C.) up to its height of 15 cm. After 15 minutes, the rat was picked up followed by drying and then returned to his home cage. After 24 hours, the rat was again placed into the water in the same cylinder. The duration of immobility (the time rat kept motionless) was accumulatively measured with a stopwatch for five minutes (a five minutes' test). Each test compound was suspended in saline. The administration was carried out three times, at 24, 5 and 1 hour before the five minutes' test in case of an intraperitoneal administration or with only a single administration at 1 hour before the five minutes' test in case of an oral administration to examine the antidepressant effect.
The duration of immobility in Table 4 is the mean value for […] in each group. Suppression is expressed as a ratio in percentage of a reduction of the duration of immobility in the group administered with the test compound to that in the control group administered with saline alone.

[6] = Mus musculus, 1 mg/kg oral, mice with latency > 100 seconds, read-out: Ratio of memory
[7] = Mus musculus, 3 mg/kg oral, mice with latency > 100 seconds, read-out: Ratio of memory

SMILES: C(=C1CCNC1)c1cccc(Oc2ccccc2)c1 [Compound 63]
- LD50 at 336 h [1]: ≥ 200 mg/kg
- Dead mice [2]: no dead mice

SMILES: CCN1CCC(=Cc2cccc(Oc3ccccc3)c2)C1 [Compound 66]
- Step-through latency ([3]; 0.3 mg/kg oral): 221 s
- responders at 0.3 mg/kg ([3]; Mus musculus, 0.3 mg/kg oral, mice with latency > 100 seconds, read-out: Ratio of memory): 75%
- inhibition at 1 µM [4]: 82%
- LD50 at 336 h [1]: ≥ 500 mg/kg

SMILES: CCN1CC(=Cc2cccc(Oc3ccccc3)c2)CC1C (centres unmarked) [Compound 75]
- Step-through latency ([3]; 1 mg/kg oral): 160 s
- responders at 1 mg/kg [3, 6]: 50%
- inhibition at 1 µM [4]: 65%
- LD50 at 336 h [1]: ≥ 500 mg/kg

SMILES: CCN1CC(=Cc2cccc(Oc3ccccc3)c2)C(C)C1 (centres unmarked) [Compound 76]
- Step-through latency ([3]; 1 mg/kg oral): 109 s
- responders at 1 mg/kg [3, 6]: 50%
- inhibition at 1 µM [4]: 80%
- LD50 at 336 h [1]: ≥ 500 mg/kg

SMILES: NC(=O)CN1CCC(=Cc2cccc(Oc3ccccc3)c2)C1=O [Compound 32]
- Step-through latency ([3]; 1 mg/kg oral): 94 s
- responders at 1 mg/kg [3, 6]: 50%
- inhibition at 10 µM [4]: 91%
- LD50 at 336 h [1]: ≥ 500 mg/kg

SMILES: CCN1CCC(=Cc2cccc(Oc3ccccc3)c2)C1=O [Compound 10]
- Step-through latency ([3]; 3 mg/kg oral): 127 s
- responders at 3 mg/kg [3, 7]: 80%
- inhibition at 10 µM [4]: 90%
- LD50 at 336 h [1]: ≥ 500 mg/kg

SMILES: CN1CCC(=Cc2cccc(Oc3ccccc3)c2)C1 [Compound 65]
- Step-through latency ([3]; 1 mg/kg oral): 117 s
- responders at 1 mg/kg [3, 6]: 50%
- inhibition at 10 µM [4]: 52%
- LD50 at 336 h [1]: ≥ 500 mg/kg

SMILES: C(=C1CCNC1)c1cccc(Oc2ccccc2)c1 [Compound 64]
- Step-through latency ([3]; 3 mg/kg oral): 150 s
- responders at 3 mg/kg [3, 7]: 63%
- inhibition at 10 µM [4]: 90%
- Duration of immobility ([5]; 1 hour before test): 40 s
- Suppression of duration of immobility ([5]; vs saline): 82%

SMILES: CCCN1CCC(=Cc2cccc(Oc3ccccc3)c2)C1=O [Compound 11]
- Step-through latency ([3]; 3 mg/kg oral): 182 s
- responders at 3 mg/kg [3, 7]: 63%
- inhibition at 10 µM [4]: 58%
- LD50 at 336 h [1]: ≥ 500 mg/kg
